According to ChEMBL document CHEMBL3046498, “Weed control efficacy and winter wheat safety of a novel herbicide HW02” (Crop Prot, 2013):
Activity calls are given as the source filed them. The calls are words filed in the database; no cut-off is given here.

Columns and labels:
[1] = tested on: Triticum aestivum; assay: Toxicity against Winter Triticum aestivum (wheat) cultivar Dongmai 12 assessed as spike numbers at 900 g ai/h applied at booting stage of crop (reference value: 482.4/m'2); type: organism-based; conditions: in vivo, other
[2] = tested on: Triticum aestivum; assay: Toxicity against Winter Triticum aestivum (wheat) cultivar Dongmai 12 assessed as plant height at 225 g ai/h applied at booting stage of crop (reference value: 72.7 cm); type: organism-based; conditions: in vivo, other
[3] = tested on: Triticum aestivum; assay: Toxicity against Winter Triticum aestivum (wheat) cultivar Dongmai 12 assessed as 1000-grain weight at 900 g ai/h applied at late tillering stage of crop in spring (reference value: 42.6 g); type: organism-based; conditions: in vivo, other
[4] = tested on: Triticum aestivum; assay: Toxicity against Winter Triticum aestivum (wheat) cultivar Dongmai 12 assessed as spike numbers at 450 g ai/h applied at 2-tillering stage of crop in winter (reference value: 482.4/m'2); type: organism-based; conditions: in vivo, other
[5] = tested on: Triticum aestivum; assay: Toxicity against Winter Triticum aestivum (wheat) cultivar Dongmai 12 assessed as plant height at 900 g ai/h applied at booting stage of crop (reference value: 72.7 cm); type: organism-based; conditions: in vivo, other
[6] = tested on: Triticum aestivum; assay: Toxicity against Winter Triticum aestivum (wheat) cultivar Dongmai 12 assessed as 1000-grain weight at 450 g ai/h applied at late tillering stage of crop in spring (reference value: 42.6 g); type: organism-based; conditions: in vivo, other
[7] = tested on: Triticum aestivum; assay: Toxicity against Winter Triticum aestivum (wheat) cultivar Dongmai 12 assessed as spike numbers at 900 g ai/h applied at 2-tillering stage of crop in winter (reference value: 482.4/m'2); type: organism-based; conditions: in vivo, other
[8] = tested on: Triticum aestivum; assay: Toxicity against Winter Triticum aestivum (wheat) cultivar Dongmai 12 assessed as 1000-grain weight at 900 g ai/h applied at booting stage of crop (reference value: 42.6 g); type: organism-based; conditions: in vivo, other
[9] = tested on: Myosoton aquaticum; assay: Herbicidal activity against Myosoton aquaticum assessed as decrease in biomass treated at four to five-leaf stage measured after 14 days under greenhouse trials; type: functional
[10] = tested on: Triticum aestivum; assay: Toxicity against Winter Triticum aestivum (wheat) cultivar Dongmai 12 assessed as spike numbers at 450 g ai/h applied at late tillering stage of crop in spring (reference value: 482.4/m'2); type: organism-based; conditions: in vivo, other
[11] = tested on: Descurainia sophia; assay: Herbicidal activity against Descurainia sophia in Wheat cultivar lifeng 703 field assessed as decrease in plant number applied during late tillering stage of winter wheat at 525 g ai/h measured after 45 days under field trials; type: functional, organism-based
[12] = tested on: Descurainia sophia; assay: Herbicidal activity against Descurainia sophia in Wheat cultivar lifeng 703 field assessed as decrease in biomass applied during late tillering stage of winter wheat at 525 g ai/h measured after 45 days under field trials; type: functional, organism-based
[13] = tested on: Triticum aestivum; assay: Toxicity against Winter Triticum aestivum (wheat) cultivar lifeng 703 assessed as grain yield at 525 g ai/h; type: organism-based; conditions: in vivo
[14] = tested on: Triticum aestivum; assay: Toxicity against Winter Triticum aestivum (wheat) cultivar Dongmai 12 assessed as spike numbers at 225 g ai/h applied at late tillering stage of crop in spring (reference value: 482.4/m'2); type: organism-based; conditions: in vivo, other
[15] = tested on: Capsella bursa-pastoris; assay: Herbicidal activity against Capsella bursa-pastoris in wheat cultivar Dongmai 12 field assessed as decrease in plant number applied during late tillering stage of winter wheatat 525 g ai/h measured after 45 days under field trials; type: functional, organism-based
[16] = tested on: Triticum aestivum; assay: Toxicity against Winter Triticum aestivum (wheat) cultivar Dongmai 12 assessed as spike numbers at 900 g ai/h applied at 3-leaf stage of crop (reference value: 482.4/m'2); type: organism-based; conditions: in vivo, other
[17] = tested on: Capsella bursa-pastoris; assay: Herbicidal activity against Capsella bursa-pastoris in wheat cultivar lifeng 703 field assessed as decrease in plant number applied during late tillering stage of winter wheatat 525 g ai/h measured after 45 days under field trials; type: functional, organism-based
[18] = tested on: Triticum aestivum; assay: Toxicity against Winter Triticum aestivum (wheat) cultivar Dongmai 12 assessed as plant height at 450 g ai/h applied at 3-leaf stage of crop (reference value: 72.7 cm); type: organism-based; conditions: in vivo, other
[19] = tested on: Triticum aestivum; assay: Toxicity against Winter Triticum aestivum (wheat) cultivar Dongmai 12 assessed as plant height at 450 g ai/h applied at late tillering stage of crop in spring (reference value: 72.7 cm); type: organism-based; conditions: in vivo, other
[20] = tested on: Triticum aestivum; assay: Toxicity against Winter Triticum aestivum (wheat) cultivar Dongmai 12 assessed as 1000-grain weight at 450 g ai/h applied at booting stage of crop (reference value: 42.6 g); type: organism-based; conditions: in vivo, other
[21] = tested on: Triticum aestivum; assay: Toxicity against Winter Triticum aestivum (wheat) cultivar Dongmai 12 assessed as abnormal ear formation at 525 g ai/h; type: organism-based; conditions: in vivo
[22] = tested on: Amaranthus retroflexus; assay: Herbicidal activity against Amaranthus retroflexus assessed as decrease in biomass treated at 4-5 leaf stage measured after 14 days under greenhouse trials; type: functional
[23] = tested on: Triticum aestivum; assay: Toxicity against Winter Triticum aestivum (wheat) cultivar Dongmai 12 assessed as plant height at 450 g ai/h applied at 2-tillering stage of crop in winter (reference value: 72.7 cm); type: organism-based; conditions: in vivo, other
[24] = tested on: Triticum aestivum; assay: Toxicity against Winter Triticum aestivum (wheat) cultivar Dongmai 12 assessed as spike numbers at 225 g ai/h applied at booting stage of crop (reference value: 482.4/m'2); type: organism-based; conditions: in vivo, other
[25] = tested on: Descurainia sophia; assay: Herbicidal activity against Descurainia sophia assessed as decrease in biomass treated at 4-5 leaf stage measured after 14 days under greenhouse trials; type: functional
[26] = tested on: Capsella bursa-pastoris; assay: Herbicidal activity against Capsella bursa-pastoris in wheat cultivar Dongmai 12 field assessed as decrease in biomass applied during late tillering stage of winter wheatat 525 g ai/h measured after 45 days under field trials; type: functional, organism-based
[27] = tested on: Triticum aestivum; assay: Toxicity against Winter Triticum aestivum (wheat) cultivar Dongmai 12 assessed as 1000-grain weight at 225 g ai/h applied at late tillering stage of crop in spring (reference value: 42.6 g); type: organism-based; conditions: in vivo, other
[28] = tested on: Triticum aestivum; assay: Toxicity against Winter Triticum aestivum (wheat) cultivar Dongmai 12 assessed as plant height at 225 g ai/h applied at 3-leaf stage of crop (reference value: 72.7 cm); type: organism-based; conditions: in vivo, other
[29] = tested on: Triticum aestivum; assay: Toxicity against Winter Triticum aestivum (wheat) cultivar Dongmai 12 assessed as 1000-grain weight at 900 g ai/h applied at 3-leaf stage of crop (reference value: 42.6 g); type: organism-based; conditions: in vivo, other
[30] = tested on: Triticum aestivum; assay: Toxicity against Winter Triticum aestivum (wheat) cultivar Dongmai 12 assessed as plant height at 900 g ai/h applied at 2-tillering stage of crop in winter (reference value: 72.7 cm); type: organism-based; conditions: in vivo, other
[31] = tested on: Triticum aestivum; assay: Toxicity against Winter Triticum aestivum (wheat) cultivar Dongmai 12 assessed as spike numbers at 225 g ai/h applied at 2-tillering stage of crop in winter (reference value: 482.4/m'2); type: organism-based; conditions: in vivo, other
[32] = tested on: Triticum aestivum; assay: Toxicity against Winter Triticum aestivum (wheat) cultivar Dongmai 12 assessed as plant height at 225 g ai/h applied at late tillering stage of crop in spring (reference value: 72.7 cm); type: organism-based; conditions: in vivo, other
[33] = tested on: Triticum aestivum; assay: Toxicity against Winter Triticum aestivum (wheat) cultivar Dongmai 12 assessed as spike numbers at 450 g ai/h applied at 3-leaf stage of crop (reference value: 482.4/m'2); type: organism-based; conditions: in vivo, other
[34] = tested on: Triticum aestivum; assay: Toxicity against Winter Triticum aestivum (wheat) cultivar Dongmai 12 assessed as 1000-grain weight at 225 g ai/h applied at 3-leaf stage of crop (reference value: 42.6 gms); type: organism-based; conditions: in vivo, other
[35] = tested on: Capsella bursa-pastoris; assay: Herbicidal activity against Capsella bursa-pastoris assessed as decrease in biomass treated at 4-5 leaf stage measured after 14 days under greenhouse trials; type: functional
[36] = tested on: Triticum aestivum; assay: Toxicity against Winter Triticum aestivum (wheat) cultivar Dongmai 12 assessed as plant height at 900 g ai/h applied at late tillering stage of crop in spring (reference value: 72.7 cm); type: organism-based; conditions: in vivo, other
[37] = tested on: Triticum aestivum; assay: Toxicity against Winter Triticum aestivum (wheat) cultivar Dongmai 12 assessed as plant height at 900 g ai/h applied at 3-leaf stage of crop (reference value: 72.7 cm); type: organism-based; conditions: in vivo, other
[38] = tested on: Capsella bursa-pastoris; assay: Herbicidal activity against Capsella bursa-pastoris in wheat cultivar lifeng 703 field assessed as decrease in biomass applied during late tillering stage of winter wheatat 525 g ai/h measured after 45 days under field trials; type: functional, organism-based
[39] = tested on: Triticum aestivum; assay: Toxicity against Winter Triticum aestivum (wheat) cultivar Dongmai 12 assessed as spike numbers at 225 g ai/h applied at 3-leaf stage of crop (reference value: 482.4/m'2); type: organism-based; conditions: in vivo, other
[40] = tested on: Triticum aestivum; assay: Toxicity against Winter Triticum aestivum (wheat) cultivar Dongmai 12 assessed as 1000-grain weight at 450 g ai/h applied at 2-tillering stage of crop in winter (reference value: 42.6 g); type: organism-based; conditions: in vivo, other
[41] = tested on: Descurainia sophia; assay: Herbicidal activity against Descurainia sophia in Wheat cultivar Dongmai 12 field assessed as decrease in biomass applied during late tillering stage of winter wheat at 525 g ai/h measured after 45 days under field trials; type: functional, organism-based
[42] = tested on: Triticum aestivum; assay: Toxicity against Winter Triticum aestivum (wheat) cultivar Dongmai 12 assessed as 1000-grain weight at 225 g ai/h applied at booting stage of crop (reference value: 42.6 g); type: organism-based; conditions: in vivo, other
[43] = tested on: Triticum aestivum; assay: Toxicity against Winter Triticum aestivum (wheat) cultivar Dongmai 12 assessed as spike numbers at 450 g ai/h applied at booting stage of crop (reference value: 482.4/m'2); type: organism-based; conditions: in vivo, other
[44] = tested on: Triticum aestivum; assay: Toxicity against Winter Triticum aestivum (wheat) cultivar Dongmai 12 assessed as 1000-grain weight at 225 g ai/h applied at 2-tillering stage of crop in winter (reference value: 42.6 g); type: organism-based; conditions: in vivo, other
[45] = tested on: Triticum aestivum; assay: Toxicity against Winter Triticum aestivum (wheat) cultivar lifeng 703 assessed as abnormal ear formation at 525 g ai/h; type: organism-based; conditions: in vivo
[46] = tested on: Triticum aestivum; assay: Toxicity against Winter Triticum aestivum (wheat) cultivar Dongmai 12 assessed as grain yield at 525 g ai/h; type: organism-based; conditions: in vivo
[47] = tested on: Triticum aestivum; assay: Toxicity against Winter Triticum aestivum (wheat) cultivar Dongmai 12 assessed as spike numbers at 900 g ai/h applied at late tillering stage of crop in spring (reference value: 482.4/m'2); type: organism-based; conditions: in vivo, other
[48] = tested on: Descurainia sophia; assay: Herbicidal activity against Descurainia sophia in Wheat cultivar Dongmai 12 field assessed as decrease in plant number applied during late tillering stage of winter wheat at 525 g ai/h measured after 45 days under field trials; type: functional, organism-based
[49] = tested on: Triticum aestivum; assay: Toxicity against Winter Triticum aestivum (wheat) cultivar Dongmai 12 assessed as plant height at 450 g ai/h applied at booting stage of crop (reference value: 72.7 cm); type: organism-based; conditions: in vivo, other
[50] = tested on: Triticum aestivum; assay: Toxicity against Winter Triticum aestivum (wheat) cultivar Dongmai 12 assessed as plant height at 225 g ai/h applied at 2-tillering stage of crop in winter (reference value: 72.7 cm); type: organism-based; conditions: in vivo, other
[51] = tested on: Triticum aestivum; assay: Toxicity against Winter Triticum aestivum (wheat) cultivar Dongmai 12 assessed as 1000-grain weight at 450 g ai/h applied at 3-leaf stage of crop (reference value: 42.6 gms); type: organism-based; conditions: in vivo, other
[52] = tested on: Triticum aestivum; assay: Toxicity against Winter Triticum aestivum (wheat) cultivar Dongmai 12 assessed as 1000-grain weight at 900 g ai/h applied at 2-tillering stage of crop in winter (reference value: 42.6 g); type: organism-based; conditions: in vivo, other

O=C(O)COc1ccc(Cl)cc1Cl [2,4-DICHLOROPHENOXYACETIC ACID]
Activity [1]: 474 /m2
Activity [2]: 72 cm
Activity [3]: 42.2 g
Activity [4]: 453 /m2
Activity [5]: 70.5 cm
Activity [6]: 42.2 g
Activity [7]: 450 /m2
Activity [8]: 41.7 g
ED50 [9]: 60.2 gAi/ha
Activity [10]: 480 /m2
inhibition [11]: Active
inhibition [12]: Active
Activity [13]: 8.2 tons/ha
Activity [14]: 484.5 /m2
inhibition [15]: Active
Activity [16]: 361.5 /m2
inhibition [17]: Active
Activity [18]: 66 cm
Activity [19]: 72 cm
Activity [20]: 42.5 g
Activity [21]: Non-toxic
ED50 [22]: 74.1 gAi/ha
Activity [23]: 71.9 cm
Activity [24]: 484.5 /m2
ED50 [25]: 23.9 gAi/ha
inhibition [26]: Active
Activity [27]: 42.4 g
Activity [28]: 70.3 cm
Activity [29]: 37.5 g
Activity [30]: 71.5 cm
Activity [31]: 478.5 /m2
Activity [32]: 73.2 cm
Activity [33]: 366 /m2
Activity [34]: 40.9 g
ED50 [35]: 75.4 gAi/ha
Activity [36]: 72.3 cm
Activity [37]: 61.6 cm
inhibition [38]: Active
Activity [39]: 406.5 /m2
Activity [40]: 42.6 g
inhibition [41]: Active
Activity [42]: 42.5 g
Activity [43]: 474 /m2
Activity [44]: 42.6 g
Activity [45]: Toxic
Activity [46]: 5.6 tons/ha
Activity [47]: 480 /m2
inhibition [48]: Active
Activity [49]: 71.5 cm
Activity [50]: 72 cm
Activity [51]: 38.8 g
Activity [52]: 42.2 g
